Experimental data published in patent publication US20230027219A1, “Skin Care Compositions and Methods of Use Thereof” (Unigen, Inc., priority 2013, published 2023).
Read-outs that look alike come from different tables or passages of the source.

Key:
3T3-L1 cells = assay: Lipid accumulation assay in adipocytes (Oil red O staining); format: cell-based, Mouse; details: for inhibition at 0.005 µg/mL / inhibition at 0.01 µg/mL / inhibition at 0.05 µg/mL / inhibition at 0.1 µg/mL / inhibition at 0.5 µg/mL: Mus musculus, read-out: Inhibition (%) of lipid accumulation; for effect on lipid accumulation, in words: over the doses tested, 3T3-L1, Oil red O
Protocol: Mouse embryo fibroblast 3T3-L1 cells (purchased from American Type Culture Collection) were cultured in Dulbecco's modified Eagle's medium (DMEM) (GIBCO) containing 10% bovine calf serum until confluent. Two days post-confluence (D0), the cells were stimulated to differentiate into an adipocyte-like phenotype by adding DMEM containing 10% fetal bovine serum (FBS), 5 μg/ml insulin, 0.5 mM 3-isobutyl-1-methylxanthine (IBMX) and 1 μM dexamethasone for two days (D2). Cells were then maintained in 10% FBS/DMEM medium with 5 μg/ml insulin for another two days (D4), followed by culturing with 10% FBS/DMEM medium for four days (D8). Test samples at various concentrations were added to the cells from Day 0 to Day 8 of adipogenesis, during which the medium was exchanged every 2 days with fresh medium containing the test sample. On Day 8, lipid droplets in cells were stained with Oil red O (ORO) and signal measured at 510 nm.
Briefly, three concentrations of Annona AS-EE3 (100% EtOH) and AS-EE4 (70% EtOH) extracts (0.1, 0.5 and 1 μg/ml) and positive control TNF-α(10 ng/mL) were used to treat 3T3-L1 cells during the differentiation period (from Day 0 to Day 8 of adipogenesis). Cell culture medium containing extracts was changed every 2 days and ORO staining was used to detect lipid droplet accumulation in cells.
Three concentrations of the Annona hexane extracts (0.05, 0.1 and 0.5 μg/ml) were used to treat 3T3-L1 cells during the differentiation period (from Day 0 to Day 8 of adipogenesis), then stained for lipid accumulation on Day 8.
Similar to the previous extracts, each EtOAc extract was tested at three doses of 0.05 μg/ml, 0.1 μg/ml and 0.5 μg/ml.
Similar to the previous extracts, each of the CO2 extracts were tested at the following six doses of 0.0625 μg/ml, 0.125 μg/ml, 0.25 μg/ml, 0.35 μg/ml, 0.5 μg/ml, and 1 μg/ml.

[1] = test system: human subcutaneous preadipocytes; assay: Differentiation assay in human subcutaneous adipocytes (glycerol liberated from triglyceride); format: cell-based
Protocol: The inhibition of lipid accumulation and differentiation assays examined the ability of compounds to inhibit the differentiation of human subcutaneous preadipocytes into adipocytes. Cells were grown to confluency such that all cells were synchronized and then differentiated. Cryopreserved preadipocytes were passaged with preadipocyte medium (PM-1). Cells were fed every other day with PM-1 until confluent. To induce differentiation, PM-1 medium was replaced with differentiation medium (DM-2) including insulin, dexamethasone, isobutyl methylxanthine, PPAR-γ agonist, TNF-α and test compounds at day two. After 7 days, the medium was changed to Adipocyte medium without the test compounds. On day 16 of the assay, cytotoxicity and lipid accumulation were measured. Medium was removed, leaving 50 μl in each well. 10 μl Cell Titer Blue reagent was added to each well. Cells were incubated at 37° C. for 2 hours. […] Fluorescence was measured at excitation 560 nm/emission 590 nm. […] The optical density was read at 540 nm after 15 minutes. […]
The lipid accumulation assay of Example 28 was carried out with Annona squamosa extracts. […] After 2 weeks of treatment, cells were washed with PBS, lysed and triglyceride measured by total TG assay kit (Zen-bio). The reagents contain microbial lipase and the amount of glycerol liberated from triglyceride was measured. […]

3T3-L1 pre-adipocytes = assay: Intracellular triglyceride (TG) content assay; format: cell-based, Mouse; details: 10 ng/ml; 3T3-L1, 8 days
Protocol: […] The cells were washed with PBS, scraped with homogenizing solutions. The residual cell lysate was centrifuged at 3000 g for 5 min to remove fat layers. The supernatants were assayed. The triglyceride levels were measured by using a commercial kit according to the manufacturer's instructions (#10010303, Cayman Chem., USA). As adipocytes differentiate, their intracellular levels of triglyceride increase continuously.

Molecule | inhibition at 0.005 µg/mL (3T3-L1 cells; 0 h, 0.005 μg/ml, 3T3-L1, treated Day 0-8, Oil red O) | inhibition at 0.01 µg/mL (3T3-L1 cells; 0 h, 0.01 μg/ml, 3T3-L1, treated Day 0-8, Oil red O) | inhibition at 0.05 µg/mL (3T3-L1 cells; 0 h, 0.05 μg/ml, 3T3-L1, treated Day 0-8, Oil red O) | inhibition at 0.1 µg/mL (3T3-L1 cells; 0 h, 0.1 μg/ml, 3T3-L1, treated Day 0-8, Oil red O) | inhibition at 0.5 µg/mL (3T3-L1 cells; 0 h, 0.5 μg/ml, 3T3-L1, treated Day 0-8, Oil red O) | effect on lipid accumulation, in words (3T3-L1 cells) | Concentration of Glycerol ([1]; 0.01 μg/ml, control 208.28) | Concentration of Glycerol ([1]; TNF-α 0.01 μg/mL, control 208.28 (Table 32)) | Inhibition (%) of intracellular triglyceride level (3T3-L1 pre-adipocytes) | inhibition at 0.005 µg/mL (3T3-L1 cells; 3T3-L1, 0 h) | inhibition at 0.01 µg/mL (3T3-L1 cells; 3T3-L1, 0 h) | inhibition at 0.05 µg/mL (3T3-L1 cells; 3T3-L1, 0 h) | inhibition at 0.1 µg/mL (3T3-L1 cells; 3T3-L1, 0 h) | inhibition at 0.5 µg/mL (3T3-L1 cells; 3T3-L1, 0 h)
C=C1C[C@@]23CC[C@H]4[C@@](C)(CCC[C@@]4(C)C(=O)O)[C@@H]2CC[C@@H]1C3 [SA2, kaurenoic acid] | 2 ± 21.9% | 0% | 9.8 ± 13.6% | 12.6 ± 11.7% | 7.8 ± 17.1% | weaker effect | – | – | – | – | – | – | – | –
TNF-α [reference compound] | – | – | – | – | – | – | 4.40 µM | 4.40 | 55.1% | – | – | – | – | –
CCCCCCC(O)CCCC(O)C1CCC(C2CCC(C(O)CCCCCCCCCCCCC3=CC(C)OC3=O)O2)O1 (stereo not drawn) [SA1, Squamocin] | – | – | – | – | – | high efficacy in a dose dependent manner | – | – | – | 10.7 ± 10.9% | 37.8 ± 4.4% | 72.3 ± 3.1% | 71.6 ± 1.9% | 66.7 ± 4.7%
